Entries after “also recorded” stand apart in the source; their conditions may differ. Where a name gives a salt, the structure may show the parent alone.
Assays:
[1] = system: poly (ADP-ribose) (PAR) levels; test: Pharmacodynamic biomarker analysis of poly (ADP-ribose) (PAR) levels in triple negative breast cancer xenograft tumor lysates; format: in vivo
Procedure: PAR levels rebounded at 24 hours in all models. […] In the HCC1806 (wild type for BRCA and PTEN) tumor lysate, E7389 treatment alone increased PAR at 24 and 48 hours.

BR1474 = test: Antitumor effect in patient-derived xenograft (PDx) BR1474 of triple negative breast cancer in athymic mice; format: in vivo, human
[2] = system: HCC1806 human breast cancer xenografts; test: Antitumor activity against subcutaneous HCC1806 human breast cancer xenografts in athymic mice; format: in vivo
Procedure: HCC1806 human triple negative breast cancer cells, wild type for BRCA and PTEN, were maintained in monolayer cultures in RPMI-1640 growth medium supplemented with 10% fetal bovine serum at 37° C. in a 5% CO2 humidified incubator. On the day of inoculation, cells were harvested by trypsinization, washed, and resuspended in ice-cold PBS. Female immunodeficient athymic mice were inoculated subcutaneously near the right axillary area using a 26-gauge needle with HCC1806 cells (2.5×10^6) in a 0.1 mL volume. A total of 60 mice, approximately 6 weeks old were implanted with cells.
E7449 and E7389 were evaluated as single agents and in combination for anti-tumor activity against HCC1806 human breast cancer xenografts in athymic mice. The experiment consisted of a vehicle-treated control group, an E7449 single agent-treated group, two groups treated with single agent E7389 and 2 combination drug-treated groups (Table 7). Each group was composed of 8 mice for a total of 48 mice on the first day of treatment. Sixty mice were inoculated with HCC1806 cells and on day 5 following implantation, tumor volumes were measured and mice were randomized into the 6 treatment groups based on tumor volume (average of 150 mm^3). Following randomization drug treatment was initiated (Day 5). E7449 was formulated in 0.5% methyl cellulose and orally administrated daily at 100 mg/kg based on body weight at 0.1 mL per 10 g. E7449 was administered once daily for 28 days (starting on Day 5) as a single agent or in combination with E7389. E7389 was formulated in saline and was administered intravenously once every 4 days 4 times (Day 5, 9, 13, and 17) at a dosage of 0.1 or 0.4 mg/kg as single agent or in combination with E7449, based on body weight at 0.1 mL per 10 g. The control group was treated with oral vehicle (0.5% methyl cellulose in water) daily and intravenous vehicle (saline) once every 4 days, 4 times. E7449 or vehicle was administered first and when dosing of all animals was complete E7389 was administered to animals receiving the combination.
Tumor dimensions were recorded twice per week starting at the initiation of drug treatment. […] The data generated consist of group mean tumor volumes and group mean body weights at each measurement.
Drug treatment was initiated following randomization on Day 5 (5 days post tumor implantation) and continued for 28 days. Animals whose tumor measurement reached ≥2 cm at the longest axis were euthanized prior to study termination. The study was terminated on Day 38. Statistical analysis was performed on Day 20.
Statistical analysis of the vehicle group (A) versus all drug treatment groups (B, C, D, E and F) was performed by a one way analysis of variance (ANOVA) for tumor volume followed by Dunnett's multiple comparison test. […]

## C=C1C[C@@H]2CC[C@@]34C[C@H]5OC6[C@@H](O[C@H]7CC[C@H](CC(=O)C[C@@H]8[C@@H](OC)[C@@H](C[C@H](O)CN)O[C@H]8C[C@H]8O[C@@H](CC[C@@H]1O2)C[C@@H](C)C8=C)O[C@@H]7[C@@H]6O3)[C@H]5O4 [E7389, 11, 15:18,21:24,28-triepoxy-7,9-ethano-12,15-methano-9H,15H-furo[3,2-i]furo[2′,3′:5,6]pyrano[4,3-b] [1,4]dioxacyclopentacosin-5(4H)-one, 2-[(2S)-3-amino-2-hydroxypropyl]hexacosahydro-3-methoxy-26-methyl-20,27-bis(methylene)-, (2R,3R,3aS,7R,8aS,9S,10aR,11S,12R,13aR,13bS,15S,18S,21S,24S,26R,28R,29aS)-methanesulfonate (salt)]
[1]; E7389 treatment alone
  PARP activity in tumor lysates: did not inhibit PARP activity
[1]; HCC1806 tumor lysate, E7389 alone, 24 and 48 hours
  PAR levels in tumor lysates: increased PAR
BR1474; E7389 0.3 mg/kg, single agent
  antitumor effect (tumor volume): enhanced antitumor activity
[2]; E7389 0.1 mg/kg IV Q4Dx4, single agent
  antitumor effect (tumor volume): tumor growth inhibition
[2]; E7389 0.4 mg/kg IV Q4Dx4, single agent
  antitumor effect (tumor volume): tumor regression
[2]; E7389 0.1 and 0.4 mg/kg IV Q4Dx4, single agent
  antitumor effect (tumor volume), dose dependence: Dose-dependent antitumor activity

## O=c1[nH]nc2c3c(cccc13)N=C(CN1Cc3ccccc3C1)N2 [E7449]
[1]; 6 hours, MDA-MB-436, MDA-MB-468, MDA-MB-231 and HCC1806 tumor lysates
  PARP inhibition / PAR levels in tumor lysates: complete PARP inhibition
[1]; 24 hours, all four models
  PAR levels in tumor lysates: rebounded
BR1474; E7449 as a single agent
  sensitivity of the model among the three PDx models: most sensitive
[2]; E7449 100 mg/kg PO QDx28, single agent, 100 mg/kg
  antitumor effect (tumor volume): no effect on tumor growth; also recorded: No antitumor activity
